# Experimental data taken from ChEMBL document CHEMBL3400081, “Exploration of benzamidochromenone derivatives with conformational restrictor as interleukin-5 inhibitors” (Bioorg Med Chem, 2015).
# Target: T1, Interleukin-5 (Mus musculus) (UniProt P04401)
# T1 sequence (whole entry): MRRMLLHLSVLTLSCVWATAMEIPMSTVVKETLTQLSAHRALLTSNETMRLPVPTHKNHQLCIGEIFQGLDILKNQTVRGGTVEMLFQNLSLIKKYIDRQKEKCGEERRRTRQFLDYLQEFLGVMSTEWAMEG
# Experiment: Inhibition of mouse IL5-mediated mouse Y16 cell proliferation at 30 uM after 48 hrs by WST1 assay
row,SMILES,inhibition [%]
1,O=C(Nc1ccc2oc(-c3ccccc3)c(CO)c(=O)c2c1)C1CCCCC1,35
2,CC(=O)OCc1c(C2CCCCC2)oc2ccc(NC(=O)C3CCCCC3)cc2c1=O,80
3,O=C(Nc1ccc2oc(C3CCCCC3)c(CO)c(=O)c2c1)C1CCCCC1,9
4,CC(=O)OCc1c(C2CCCCC2)oc2ccc(NS(=O)(=O)c3ccccc3)cc2c1=O,5
5,CC(C)C(=O)OCc1c(C2CCCCC2)oc2ccc(NC(=O)c3ccccc3)cc2c1=O,71
6,CC(=O)OCc1c(C2CCCCC2)oc2ccc(NC(=O)c3ccccc3)cc2c1=O,95
7,CC(=O)OCc1c(C2CCCCC2)oc2ccc(NCc3ccccc3)cc2c1=O,78
8,CC(C)(C)C(=O)OCc1c(C2CCCCC2)oc2ccc(NC(=O)c3ccccc3)cc2c1=O,5
9,CC(=O)OCc1c(C2CCCCC2)oc2ccc(NC(=O)Nc3ccccc3)cc2c1=O,25
10,O=C(Nc1ccc2oc(C3CCCCC3)c(CO)c(=O)c2c1)c1ccccc1,90
11,O=C(Nc1ccc2oc(-c3ccc(F)cc3)c(CO)c(=O)c2c1)c1ccccc1,19

# Continued, values first:
row,inhibition [%],SMILES
1,15,CC(=O)OCc1c(-c2ccccc2)oc2ccc(NC(=O)c3cnccn3)cc2c1=O
2,75,CC(=O)OCc1c(-c2ccccc2)oc2ccc(NC(=O)C3CCCCC3)cc2c1=O
3,23,O=C(Nc1ccc2oc(-c3ccccc3)c(CO)c(=O)c2c1)c1cnccn1
4,12,CC(=O)OCc1c(-c2ccc(F)cc2)oc2ccc(NC(=O)c3ccccc3)cc2c1=O
5,71,O=C(Nc1ccc2oc(-c3ccccc3)c(CO)c(=O)c2c1)c1ccccc1
6,79,CC(=O)OCc1c(-c2ccccc2)oc2ccc(NC(=O)c3ccccc3)cc2c1=O
